Patent US8822698B2, “Aminoacid derivatives, their process of preparation and their therapeutical uses as inhibitors of oncogenic signals by the Met family” (Universite D'Aix-Marseille, priority 2009, dated 2014)

How the values were obtained:
Assay in all cases: NCI 60 human tumour cell line screen
Type in all cases: cell-based
HCC-2998 = details: conc. 10^−5M; HCC-2998, Colon Cancer
Text: (§1) Compound of example 4 was screened in the NCI 60 human tumour cell line anticancer drug screen (Shoemaker et al Nature reviews 6, 2006, 813-823).

COLO 205 = details: conc. 10^−5M; COLO 205, Colon Cancer
Text: as §1

OVCAR-4 = details: conc. 10^−5M; OVCAR-4, Ovarian Cancer
Text: as §1

BT-549 = details: conc. 10^−5M; BT-549, Breast Cancer
Text: as §1

KM12 = details: conc. 10^−5M; KM12, Colon Cancer
Text: as §1

CAK I-1 = details: conc. 10^−5M; CAK I-1, Renal Cancer
Text: as §1

ACHN = details: conc. 10^−5M, Renal Cancer
Text: as §1

K-562 = details: conc. 10^−5M; K-562, Leukemia
Text: as §1

M14 = details: conc. 10^−5M; M14, Melanoma
Text: as §1

UO-31 = details: conc. 10^−5M; UO-31, Renal Cancer
Text: as §1

SN12C = details: conc. 10^−5M, Renal Cancer
Text: as §1

A549/ATCC = details: conc. 10^−5M, Non-Small Cell Lung Cancer
Text: as §1

SNB-19 = details: conc. 10^−5M; SNB-19, CNS Cancer
Text: as §1

RPMI -8226 = details: conc. 10^−5M; RPMI -8226, Leukemia
Text: as §1

NCl/ADR-RES = details: conc. 10^−5M, Ovarian Cancer
Text: as §1

SK-MEL-5 = details: conc. 10^−5M; SK-MEL-5, Melanoma
Text: as §1

SW-620 = details: conc. 10^−5M; SW-620, Colon Cancer
Text: as §1

MDA-MB-231/ATCC = details: conc. 10^−5M, Breast Cancer
Text: as §1

SK-MEL-2 = details: conc. 10^−5M; SK-MEL-2, Melanoma
Text: as §1

T-47D = details: conc. 10^−5M, Breast Cancer
Text: as §1

RXF 393 = details: conc. 10^−5M; RXF 393, Renal Cancer
Text: as §1

NCl-H322M = details: conc. 10^−5M, Non-Small Cell Lung Cancer
Text: as §1

NCl-H23 = details: conc. 10^−5M; NCl-H23, Non-Small Cell Lung Cancer
Text: as §1

OVCAR-8 = details: conc. 10^−5M; OVCAR-8, Ovarian Cancer
Text: as §1

MDA-MB-435 = details: conc. 10^−5M; MDA-MB-435, Melanoma
Text: as §1

PC-3 = details: conc. 10^−5M; PC-3, Prostate Cancer
Text: as §1

OVCAR-3 = details: conc. 10^−5M; OVCAR-3, Ovarian Cancer
Text: as §1

NCl•H226 = details: conc. 10^−5M; NCl•H226, Non-Small Cell Lung Cancer
Text: as §1

EKVX = details: conc. 10^−5M, Non-Small Cell Lung Cancer
Text: as §1

MOLT-4 = details: conc. 10^−5M; MOLT-4, Leukemia
Text: as §1

HOP-92 = details: conc. 10^−5M; HOP-92, Non-Small Cell Lung Cancer
Text: as §1

SF-295 = details: conc. 10^−5M; SF-295, CNS Cancer
Text: as §1

HT29 = details: conc. 10^−5M; HT29, Colon Cancer
Text: as §1

SK-MEL-28 = details: conc. 10^−5M; SK-MEL-28, Melanoma
Text: as §1

HS 578T = details: conc. 10^−5M, Breast Cancer
Text: as §1

U251 = details: conc. 10^−5M; U251, CNS Cancer
Text: as §1

MDA-MB-468 = details: conc. 10^−5M; MDA-MB-468, Breast Cancer
Text: as §1

SNB-75 = details: conc. 10^−5M; SNB-75, CNS Cancer
Text: as §1

LOX IMVI = details: conc. 10^−5M, Melanoma
Text: as §1

CCRF-CEM = details: conc. 10^−5M, Leukemia
Text: as §1

UACC-62 = details: conc. 10^−5M; UACC-62, Melanoma
Text: as §1

OVCAR-5 = details: conc. 10^−5M; OVCAR-5, Ovarian Cancer
Text: as §1

O=C(Cc1cc(C(F)(F)F)cc(C(F)(F)F)c1)N[C@@H](Cc1ccccc1)C(=O)Nc1ccc(-c2cn3c(n2)sc2ccccc23)cc1 [Example 4, (S)-2-(3,5-bis(trifluoromethyl)phenylacetamido)-3-phenyl-N-[4-(imidazo[2,1-b]benzothiazol-2-yl)phenyl]propanamide]
Growth Percent (HCC-2998): 98.28%
Growth Percent (COLO 205): 71.04%
Growth Percent (OVCAR-4): −0.79%
Growth Percent (BT-549): 82.05%
Growth Percent (KM12): 16.15%
Growth Percent (CAK I-1): 53.37%
Growth Percent (ACHN): 81.23%
Growth Percent (K-562): 63.10%
Growth Percent (M14): 30.58%
Growth Percent (UO-31): 67.05%
Growth Percent (SN12C): 47.40%
Growth Percent (A549/ATCC): 31.71%
Growth Percent (SNB-19): 69.84%
Growth Percent (RPMI -8226): 66.73%
Growth Percent (NCl/ADR-RES): 43.07%
Growth Percent (SK-MEL-5): 10.83%
Growth Percent (SW-620): 12.13%
Growth Percent (MDA-MB-231/ATCC): 17.15%
Growth Percent (SK-MEL-2): 45.85%
Growth Percent (T-47D): 67.66%
Growth Percent (RXF 393): 47.02%
Growth Percent (NCl-H322M): 28.70%
Growth Percent (NCl-H23): 39.55%
Growth Percent (OVCAR-8): 3.54%
Growth Percent (MDA-MB-435): 54.92%
Growth Percent (PC-3): 38.29%
Growth Percent (OVCAR-3): 2.50%
Growth Percent (NCl•H226): 90.93%
Growth Percent (EKVX): 15.48%
Growth Percent (MOLT-4): 43.46%
Growth Percent (HOP-92): 71.89%
Growth Percent (SF-295): 42.18%
Growth Percent (HT29): 18.28%
Growth Percent (SK-MEL-28): 26.28%
Growth Percent (HS 578T): 16.75%
Growth Percent (U251): 34.24%
Growth Percent (MDA-MB-468): 78.09%
Growth Percent (SNB-75): 20.69%
Growth Percent (LOX IMVI): 26.60%
Growth Percent (CCRF-CEM): 32.94%
Growth Percent (UACC-62): 69.45%
Growth Percent (OVCAR-5): 97.36%
